Among the data in patent US20250115577A1, “BCL-2 Inhibitors” (Eil Therapeutics, Inc., priority 2021, published 2025) are IC50, CC50 and EC50 values, retold here.

Series [1] concerns the target BCL-2 (Homo sapiens (Human), UniProt P10415). The series is described as follows: BCL-2 TR-FRET Assay (primary PPI inhibition). The class given is binding. To be noted: 60 min incubation, read-out: BCL2 IC50. Here is the method: Example A. BCL-2 TR-FRET Assay (BPS Bioscience, #50222)
The following assay concentrations and times were used: 3 ng of BCL-2, 5 μL of 1:100 anti-His Tb-labeled donor, 5 μL of 1:100 Dye-labeled acceptor, 5 µL of 1:40 BCL-2 Peptide Ligand, and 2 μL of 200× test compound, with 60 min incubation time (final concentration of DMSO 0.5%). The results of the assay were read using a plate reader with the following parameters: TR FRET, 340ex/620 and 665em; 60 usec Delay; and 500 usec integration.
(§1) Instrumentation: CLARIOstar Plus (BMG LABTECH); Biomek FX for liquid handling (Beckman Coulter).

Series [2] has as its target BCL-xL (Homo sapiens (Human), UniProt Q07817). The series is described as follows: BCL-xL TR-FRET Assay (primary PPI inhibition). It counts as binding. To be noted: 60 min incubation, read-out: BCLxL IC50. On the procedure: Example B. BCL-xL TR-FRET Assay (BPS Bioscience, #50223)
The following assay concentrations and times were used: 10.5 ng of BCL-xL, 5 μL of 1:120 anti-His Tb-labeled donor, 5 μL of 1:120 Dye-labeled acceptor, 5 μL of 1:96 BCL-xL Peptide Ligand, 2 μL of 200× test compound, with 60 min incubation time (final concentration of DMSO 0.5%). The results of the assay were read using a plate reader with the following parameters: TR FRET, 340ex/620 and 665em; 60 usec Delay; and 500 usec integration.
as §1

The subject of series [3] is RS4-11 cells. Nature of the series: Cell viability assay (CellTiter-Glo), RS4-11. It counts as cell-based. To be noted: Homo sapiens, RS4-11, 72 h, 3 days of incubation. On the procedure:
(§2) Example D. Cell Viability Assays (Cell lines HEK293, RS4-11, MOLT-4)
(§3) Cells were seeded at a density of 4000 cells per well in the 384-well clear bottom plate (Greiner Cat #781090) to the 45 μL total volume of either DMEM (PanEco, Cat #C420, for HEK293) or RPMI (PanEco, Cat #C330, for other cell lines) with 10% FBS(HyClone Cat #SV30160.03). Prior to adding compounds, the HEK293 cells were allowed to adhere overnight at 37° C. and 5% CO2. The 500× compounds solutions in DMSO(Sigma Cat #D2650) were dispersed into a 384-well compound plate (Diamond Well Plate, Axigen, Cat #P-384-120 SQ-C—S) including only DMSO control. The 1 μL aliquots of the 500× compounds from the compound plate were added to 49 μL of culture medium in the Dilution plate (Diamond Well Plate, Axigen, Cat #P-384-120 SQ-C—S), mixed and then the 5 μL aliquts of the 10× compound solutions were transferred to cells followed by centrifugation at 100 g for 1 min. Final DMSO concentration was 0.2%. After 3 days of incubation the 10 μL aliquots of CellTiter-Glo (Promega, CAT #G7572) were added to the cells, plate was centrifuged at 100 g for 1 min and the luminescence was measured on the CLARIOstar Plus (BMG LABTECH) instrument.
as §1
(ATP-based viability assays read luminescence as a measure of living cells.)

Series [4] can be described thus: Cell viability assay (CellTiter-Glo), HEK293. It counts as cell-based. As to conditions: human, HEK293 cells, 3 days of incubation. On the procedure:
as §2, §3, §1

Series [5] deals with MOLT-4 cells. Nature of the series: Cell viability assay (CellTiter-Glo), MOLT-4. It counts as cell-based. As to conditions: Homo sapiens, 72 h, 3 days of incubation. Here is the method: as §2, §3, §1
Series [6] has as its system caspase-3 and -7 activities in RS4-11 cells. The series is described as follows: Caspase-3/7 activation (Caspase-Glo 3/7) in RS4-11 cells. The class given is cell-based. As to conditions: Homo sapiens, 3.5 h, read-out: Cas-3/7 EC50. On the procedure:
Example E. Caspase-3/7 Activation
Assay Principle: The Caspase-Glo 3/7 Assay is homogeneous, luminescent assay that measures caspase-3 and -7 activities. The assay provides a luminogenic caspase-3/7 substrate, which contains the tetrapeptide sequence DEVD, in a reagent optimized for caspase activity.
Assay Procedure: Incubate RS4-11 (ATCC, CRL-1873) cells in the 384-well white plate (Corning, #3570) with varying concentrations of test compounds for 3.5 h in a humidified incubator at 37° C. and 5% CO2 […]. Add 15 μL of the Caspase-Glo (Promega, #8212) reagent to each well and to incubate the plate for 30 min at rt. Read on the CLARIOstar Plus (BMG LABTECH) instrument.
as §1

Molecules are shown by their SMILES. pEC50, pIC50: −log10 of the molar value.

Broadly, the pIC50 is the IC50 on a negative log10 scale, so that one unit is a factor of ten. For orientation: CC50 means the concentration at which the toxic effect on the cells reaches its halfway point. Read a high CC50 as better tolerance by the cells.

Sequence of BCL-xL (Q07817 whole entry): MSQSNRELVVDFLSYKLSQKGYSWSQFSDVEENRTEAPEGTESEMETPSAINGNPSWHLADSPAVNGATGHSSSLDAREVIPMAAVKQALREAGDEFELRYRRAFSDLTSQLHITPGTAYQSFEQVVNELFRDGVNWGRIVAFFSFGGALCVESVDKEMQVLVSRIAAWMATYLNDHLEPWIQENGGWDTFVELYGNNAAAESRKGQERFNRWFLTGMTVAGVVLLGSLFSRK
Sequence of BCL-2 (P10415 whole entry): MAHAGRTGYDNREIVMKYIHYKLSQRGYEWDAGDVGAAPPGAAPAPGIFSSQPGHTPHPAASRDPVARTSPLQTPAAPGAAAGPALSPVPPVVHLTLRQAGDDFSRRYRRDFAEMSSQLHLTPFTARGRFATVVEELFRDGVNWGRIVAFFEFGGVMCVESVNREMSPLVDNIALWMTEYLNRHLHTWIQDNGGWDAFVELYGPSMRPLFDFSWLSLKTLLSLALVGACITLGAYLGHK

With `COc1cccc(CN(C(=O)c2cc(-c3cc(Cl)c(F)cc3C(=O)N3Cc4ccccc4C[C@H]3CN3CCOCC3)n(C)c2C)c2ccc(O)cc2)c1C` [Compound 27, 5-[5-chloro-4-fluoro-2-[(3S)-3-(morpholinomethyl)-3,4-dihydro-1H-isoquinoline-2-carbonyl]phenyl]-N-(4-hydroxyphenyl)-N-[(3-methoxy-2-methyl-phenyl)methyl]-1,2-dimethyl-pyrrole-3-carboxamide], the pIC50 in series [1] is 7.30 to 8.00; in series [2] it was 5.30 to 5.70. For the same compound, the CC50 in series [3] was 100 to 200 nM; in series [5], not above 5000 nM. The CC50 at 3 days in series [4] is more than 25000 nM. For the same compound, in series [6], the pEC50 is 6.30 to 6.70.
In the case of `COc1cccc(CN(C(=O)c2cc(-c3cc(Cl)c(OC(F)F)cc3C(=O)N3Cc4ccccc4C[C@H]3CN3CCOCC3)n(C)c2C)c2ccc(Cl)cc2)c1C` [Compound 32, 5-[5-chloro-4-(difluoromethoxy)-2-[(3S)-3-(morpholinomethyl)-3,4-dihydro-1H-isoquinoline-2-carbonyl]phenyl]-N-(4-chlorophenyl)-N-[(3-methoxy-2-methyl-phenyl)methyl]-1,2-dimethyl-pyrrole-3-carboxamide], the pIC50 in series [1] was less than 7.30; in series [2], 5.30 to 5.70. The CC50 in series [3] is more than 200 nM; in series [5], not above 5000 nM. The compound also had a CC50 at 3 days in series [4] of more than 25000 nM. Besides, the pEC50 in series [6] was less than 6.30.
As for `COc1cccc(CN(C(=O)c2cc(-c3cc(C(F)F)c(Cl)cc3C(=O)N3Cc4ccccc4C[C@H]3CN3CCOCC3)n(C)c2C)c2ccc(Cl)cc2)c1C` [Compound 39, 5-[4-chloro-5-(difluoromethyl)-2-[(3S)-3-(morpholinomethyl)-3,4-dihydro-1H-isoquinoline-2-carbonyl]phenyl]-N-(4-chlorophenyl)-N-[(3-methoxy-2-methyl-phenyl)methyl]-1,2-dimethyl-pyrrole-3-carboxamide], the pIC50 in series [1] is less than 7.30; in series [2], 5.30 to 5.70. Moreover, the CC50 was more than 200 nM in series [3] and not above 5000 nM in series [5]. In series [4], this compound registered a CC50 at 3 days of more than 25000 nM. Also, the pEC50 in series [6] is less than 6.30.
`Cc1c(C(=O)N(Cc2ccccc2C#N)c2ccc(O)cc2)cc(-c2cc(F)c(F)cc2C(=O)N2Cc3ccccc3C[C@H]2CN2CCOCC2)n1C` [Compound 53, N-[(2-cyanophenyl)methyl]-5-[4,5-difluoro-2-[(3S)-3-(morpholinomethyl)-3,4-dihydro-1H-isoquinoline-2-carbonyl]phenyl]-N-(4-hydroxyphenyl)-1,2-dimethyl-pyrrole-3-carboxamide]: the pIC50 was 7.30 to 8.00 in series [1] and 5.30 to 5.70 in series [2]. Besides, the results for the CC50 in series [3] and in series [5] were 100 to 200 nM and 5000 to 10000 nM, respectively. Further, the CC50 at 3 days in series [4] was more than 25000 nM. Also, the pEC50 in series [6] is 6.30 to 6.70.
Take `COc1ccccc1CN(C(=O)c1cc(-c2cc(C#N)ccc2C(=O)N2Cc3ccccc3C[C@H]2CN2CCOCC2)n(C)c1C)c1ccc(O)cc1` [Compound 55, 5-[5-cyano-2-[(3S)-3-(morpholinomethyl)-3,4-dihydro-1H-isoquinoline-2-carbonyl]phenyl]-N-(4-hydroxyphenyl)-N-[(2-methoxyphenyl)methyl]-1,2-dimethyl-pyrrole-3-carboxamide]: the pIC50 in series [1] is 8.00 to 8.30; in series [2], not below 5.70. Further, the CC50 in series [3] was 100 to 200 nM; in series [5], not above 5000 nM. The CC50 at 3 days in series [4] is more than 25000 nM. Besides, the pEC50 in series [6] is 6.30 to 6.70.
Turning to `COc1cc(-c2cc(C(=O)N(Cc3ccccc3OC)c3ccc(Cl)cc3)c(C)n2C)c(C(=O)N2Cc3ccccc3C[C@H]2CN2CCOCC2)cc1C#N` [Compound 56, N-(4-chlorophenyl)-5-[4-cyano-5-methoxy-2-[(3S)-3-(morpholinomethyl)-3,4-dihydro-1H-isoquinoline-2-carbonyl]phenyl]-N-[(2-methoxyphenyl)methyl]-1,2-dimethyl-pyrrole-3-carboxamide], the results for the pIC50 in series [1] and in series [2] were less than 7.30 and 5.30 to 5.70, respectively. In addition, the results for the CC50 in series [3] and in series [5] were more than 200 nM and not above 5000 nM, respectively. This compound also showed a CC50 at 3 days in series [4] not above 10000 nM. Besides, the pEC50 in series [6] is less than 6.30.
Regarding `COc1cccc(CN(C(=O)c2cc(-c3cc(C#N)ccc3C(=O)N3Cc4ccccc4C[C@H]3CN3CCOCC3)n(C)c2C)c2ccc(O)cc2)c1C` [Compound 57, 5-[5-cyano-2-[(3S)-3-(morpholinomethyl)-3,4-dihydro-1H-isoquinoline-2-carbonyl]phenyl]-N-(4-hydroxyphenyl)-N-[(3-methoxy-2-methyl-phenyl)methyl]-1,2-dimethyl-pyrrole-3-carboxamide], the values for the pIC50 in series [1] and in series [2] were 8.00 to 8.30 and 5.30 to 5.70, respectively. The cytotoxic concentration (CC50) in series [3] was not above 100 nM; in series [5], not above 5000 nM. This compound registered a CC50 at 3 days in series [4] of more than 25000 nM. Further, in series [6], the pEC50 was not below 6.70.
Consider `COc1cc(-c2cc(C(=O)N(Cc3cccc(OC)c3C)c3ccc(O)cc3)c(C)n2C)c(C(=O)N2Cc3ccccc3C[C@H]2CN2CCOCC2)cc1C#N` [Compound 58, 5-[4-cyano-5-methoxy-2-[(3S)-3-(morpholinomethyl)-3,4-dihydro-1H-isoquinoline-2-carbonyl]phenyl]-N-(4-hydroxyphenyl)-N-[(3-methoxy-2-methyl-phenyl)methyl]-1,2-dimethyl-pyrrole-3-carboxamide], for which the results for the pIC50 in series [1] and in series [2] were less than 7.30 and 5.30 to 5.70, respectively. Also, the CC50 in series [3] was more than 200 nM; in series [5], not above 5000 nM. Further, in series [4], the CC50 at 3 days was more than 25000 nM. In addition, the pEC50 in series [6] is less than 6.30.
For the compound `COc1cccc(CN(C(=O)c2cc(-c3cc([N+](=O)[O-])ccc3C(=O)N3Cc4ccccc4C[C@H]3CN3CCOCC3)n(C)c2C)c2ccc(O)cc2)c1C` [Compound 61, N-(4-hydroxyphenyl)-N-[(3-methoxy-2-methyl-phenyl)methyl]-1,2-dimethyl-5-[2-[(3S)-3-(morpholinomethyl)-3,4-dihydro-1H-isoquinoline-2-carbonyl]-5-nitro-phenyl]pyrrole-3-carboxamide], the pIC50 is not below 8.30 in series [1] and less than 5.30 in series [2]. In addition, the CC50 was not above 100 nM in series [3] and not above 5000 nM in series [5]. This compound also displayed a CC50 at 3 days in series [4] of more than 25000 nM. Moreover, the pEC50 in series [6] was 6.30 to 6.70.
`Cc1c(C(=O)N(Cc2ccccc2C#N)c2ccc(O)cc2)cc(-c2cc([N+](=O)[O-])ccc2C(=O)N2Cc3ccccc3C[C@H]2CN2CCOCC2)n1C` [Compound 62, N-[(2-cyanophenyl)methyl]-N-(4-hydroxyphenyl)-1,2-dimethyl-5-[2-[(3S)-3-(morpholinomethyl)-3,4-dihydro-1H-isoquinoline-2-carbonyl]-5-nitro-phenyl]pyrrole-3-carboxamide]: the values for the pIC50 in series [1] and in series [2] were not below 8.30 and less than 5.30, respectively. The values for the CC50 in series [3] and in series [5] were not above 100 nM and not above 5000 nM, respectively. The CC50 at 3 days in series [4] was more than 25000 nM. The pEC50 in series [6] is not below 6.70.
